biological target: T1, human LPA1 (Homo sapiens, UniProt Q92633); assay: LPA1 calcium flux assay (HLPA1 Ca Flux); type: cell-based; settings: Human LPA1 expressing CHO cells, stimulated with 10 nM LPA
T1 construct: the full-length cDNA for human LPA1 was obtained by PCR of the reverse transcription reaction; expressed in transfected cells
Protocol: A 1.1 kb cDNA encoding the human LPA1 receptor was cloned from human lung. Human lung RNA (Clontech Laboratories, Inc. USA) was reverse transcribed using the RETROscript kit (Ambion, Inc.) and the full-length cDNA for human LPA1 was obtained by PCR of the reverse transcription reaction. The nucleotide sequence of the cloned human LPA1 was determined by sequencing and confirmed to be identical to the published human LPA1 sequence (An et al. Biochem. Biophys. Res. Commun. 231:619 (1997). The cDNA was cloned into the pcDNAS/FRT expression plasmid and transfected in CHO cells using lipofectamine 2000 (Invitrogen Corp., USA). Clones stably expressing human LPA1 were selected using hygromycin and identified as cells that show Ca-influx in response to LPA.
(§1) Human LPA1 or LPA3 expressing CHO cells are seeded at 20,000-45,000 cells per well in a 96-well poly-D-lysine coated plate one or two days before the assay. Prior to the assay, the cells are washed once with PBS and then cultured in serum-free media overnight. On the day of the assay, a calcium indicator dye (Calcium 4, Molecular Devices) in assay buffer (HBSS with Ca^2+ and Mg^2+ and containing 20 mM Hepes and 0.3% fatty-acid free human serum albumin) is added to each well and incubation continued for 1 hour at 37° C. 10 μl of test compounds in 2.5% DMSO are added to the cells and incubation continued at room temperature for 30 minutes. Cells are the stimulated by the addition of 10 nM LPA and intracellular Ca^2+ measured using the Flexstation 3 (Molecular Devices). IC50s are determined using Graphpad prism analysis of drug titration curves.

T1 sequence (Q92633 whole entry): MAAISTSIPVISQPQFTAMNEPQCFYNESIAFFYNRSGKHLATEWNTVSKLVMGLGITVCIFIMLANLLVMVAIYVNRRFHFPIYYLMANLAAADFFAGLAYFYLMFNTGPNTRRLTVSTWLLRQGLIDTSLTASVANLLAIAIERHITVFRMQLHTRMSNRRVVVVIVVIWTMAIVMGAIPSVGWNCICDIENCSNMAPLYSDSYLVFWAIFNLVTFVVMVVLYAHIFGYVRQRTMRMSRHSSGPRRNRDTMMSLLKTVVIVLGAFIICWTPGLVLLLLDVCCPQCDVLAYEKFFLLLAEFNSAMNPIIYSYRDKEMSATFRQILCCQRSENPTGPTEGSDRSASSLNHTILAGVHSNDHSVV

Cc1noc(-c2ccc(-c3ccc(C(C)C(=O)O)cc3)cc2)c1NC(=O)O[C@H](C)c1ccccc1Cl (single isomer, unassigned) [Compound 1-127] and Cc1cc(-c2onc(C)c2NC(=O)O[C@H](C)c2ccccc2F)ccc1-c1ccc(C(C)C(=O)O)cc1 (stereo partly drawn) [Compound 1-110, 2-(4′-{4-[(R)-1-(2-Fluoro-phenyl)-ethoxycarbonylamino]-3-methyl-isoxazol-5-yl}-2′-methyl-biphenyl-4-yl)-propionic acid] cannot be ordered by IC50: less than 300 nM for the first, less than 300 nM for the second.

Compared with Cc1noc(-c2ccc(-c3ccc(C(C)C(=O)O)cc3)cc2)c1NC(=O)O[C@H](C)c1ccccc1Cl (single isomer, unassigned) [Compound 1-128], Cc1noc(-c2ccc3cc(-c4ccc(CC(=O)O)cc4)ccc3c2)c1NC(=O)OC(C)c1ccccc1Cl (centres unmarked) [Compound 3-1] is higher in IC50: less than 300 nM for the first, 300 to 1000 nM for the second. The first is the more potent here.

Cc1noc(-c2ccc(Cn3cnc(C(=O)O)n3)cc2)c1NC(=O)OC(C)c1ccccc1Cl (centres unmarked) [Compound 1-1, 1-(4-{4-[1-(2-Chloro-phenyl)-ethoxycarbonylamino]-3-methyl-isoxazol-5-yl}-benzyl)-1H-[1,2,4]triazole-3-carboxylic acid] and Cc1noc(-c2ccc(Cn3cncc3C(=O)O)cc2)c1NC(=O)OC(C)c1ccccc1Cl (centres unmarked) [Compound 1-3, 3-(4-{4-[1-(2-Chloro-phenyl)-ethoxycarbonylamino]-3-methyl-isoxazol-5-yl}-benzyl)-3H-1-imidazole-4-carboxylic acid] cannot be ordered by IC50: less than 300 nM for the first, less than 300 nM for the second.

First: Cc1noc(-c2ccc(Cn3ncc(C(=O)O)c3C(F)(F)F)cc2)c1NC(=O)OC(C)c1ccccc1Cl (centres unmarked) [Compound 1-4, 1-(4-{4-[1-(2-Chloro-phenyl)-ethoxycarbonylamino]-3-methyl-isoxazol-5-yl}-benzyl)-5-trifluoromethyl-1H-pyrazole-4-carboxylic acid]
Second: Cc1noc(-c2ccc(CN3CC(C(=O)O)C3)cc2)c1NC(=O)O[C@H](C)c1ccccc1 [Compound 1-140]
The IC50 of the first is lower: less than 300 nM for the first, 1000 to 50000 nM for the second. The first is the more potent here.

Compared with CCOC(=O)Cc1ccc(Sc2ccc(-c3onc(C)c3NC(=O)O[C@H](C)c3ccccc3F)cc2)cc1 [Compound 1-105, [4-(4-{4-[(R)-1-(2-Fluoro-phenyl)-ethoxycarbonylamino]-3-methyl-isoxazol-5-yl}-phenylsulfanyl)-phenyl]-acetic acid ethyl ester], Cc1noc(-c2ccc(Sc3cccc(CC(=O)O)c3)cc2)c1NC(=O)O[C@H](C)c1ccccc1F [Compound 1-106, [3-(4-{4-[(R)-1-(2-Fluoro-phenyl)-ethoxycarbonylamino]-3-methyl-isoxazol-5-yl}-phenylsulfanyl)-phenyl]-acetic acid] is lower in IC50: 1000 to 50000 nM for the first, 300 to 1000 nM for the second.

First: Cc1noc(-c2ccc(Sc3ccccc3CC(=O)O)cc2)c1NC(=O)O[C@H](C)c1ccccc1F [Compound 1-107, [2-(4-{4-[(R)-1-(2-Fluoro-phenyl)-ethoxycarbonylamino]-3-methyl-isoxazol-5-yl}-phenylsulfanyl)-phenyl]-acetic acid]
Second: Cc1noc(-c2ccc(Sc3ccc(CC(=O)O)cn3)cc2)c1NC(=O)O[C@H](C)c1ccccc1F [Compound 1-108, [6-(4-{4-[(R)-1-(2-Fluoro-phenyl)-ethoxycarbonylamino]-3-methyl-isoxazol-5-yl}-phenylsulfanyl)-pyridin-3-yl]-acetic acid]
The IC50 of the first is higher: 1000 to 50000 nM for the first, less than 300 nM for the second. The second is the more potent here.

First: Cc1noc(-c2ccc(-c3ccc(CC(=O)O)cc3)cc2)c1NC(=O)OCc1ccccc1Cl [Compound 1-113, {4′-[4-(2-Chloro-benzyloxycarbonylamino)-3-methyl-isoxazol-5-yl]-biphenyl-4-yl}-acetic acid]
Second: Cc1noc(-c2ccc(-c3ccc(CC(=N)N)cc3)cc2)c1NC(=O)O[C@H](C)c1ccccc1F [Compound 2-6, [5-(4′-Carbamimidoylmethyl-biphenyl-4-yl)-3-methyl-isoxazol-4-yl]-carbamic acid (R)-1-(2-fluoro-phenyl)-ethyl ester]
The IC50 of the first is lower: 300 to 1000 nM for the first, 1000 to 50000 nM for the second.

First: COc1ccc(C(C)OC(=O)Nc2c(C)noc2-c2ccc(-c3ccc(CC(=O)O)cc3)cc2)c(F)c1 (centres unmarked) [Compound 1-118, (4′-{4-[1-(2-Fluoro-4-methoxy-phenyl)-ethoxycarbonylamino]-3-methyl-isoxazol-5-yl}-biphenyl-4-yl)-acetic acid]
Second: CC(=O)NC(=N)Cc1ccc(-c2ccc(-c3onc(C)c3NC(=O)O[C@H](C)c3ccccc3F)cc2)cc1 [Compound 2-7, {5-[4′-(2-Acetylamino-2-imino-ethyl)-biphenyl-4-yl]-3-methyl-isoxazol-4-yl}-carbamic acid (R)-1-(2-fluoro-phenyl)-ethyl ester]
The IC50 of the first is higher: 300 to 1000 nM for the first, less than 300 nM for the second.

Cc1noc(-c2ccc(-c3ccccc3CC(=O)O)cc2)c1NC(=O)O[C@H](C)c1ccccc1 [Compound 1-123] and Cc1noc(-c2ccc(-c3ccc(CC(=O)O)cc3)cc2)c1NC(=O)O[C@H](C)c1cc(Br)cc(Br)c1 [Compound 1-141, (4′-{4-[(R)-1-(3,5-Dibromo-phenyl)-ethoxycarbonylamino]-3-methyl-isoxazol-5-yl}-biphenyl-4-yl)-acetic acid] fall in the same range of IC50: 1000 to 50000 nM for the first, 1000 to 50000 nM for the second.

First: Cc1noc(-c2ccc(-c3ccc(C(=O)O)cc3)cc2)c1NC(=O)OC(C)C [Compound 1-125, 4′-(4-Isopropoxycarbonylamino-3-methyl-isoxazol-5-yl)-biphenyl-4-carboxylic acid]
Second: Cc1noc(-c2ccc(-c3ccc(CC(=O)O)cc3)cc2)c1NC(=O)OC(C)(C)C [Compound 1-136, [4′-(4-tert-Butoxycarbonylamino-3-methyl-isoxazol-5-yl)-biphenyl-4-yl]-acetic acid]
The IC50 of the first is higher: 1000 to 50000 nM for the first, 300 to 1000 nM for the second. The second is the more potent here.

COC(=O)Cn1nnc(-c2ccc(-c3onc(C)c3NC(=O)O[C@H](C)c3ccccc3F)cc2)n1 [Compound 1-134, [5-(4-{4-[(R)-1-(2-Fluoro-phenyl)-ethoxycarbonylamino]-3-methyl-isoxazol-5-yl}-phenyl)-tetrazol-2-yl]-acetic acid methyl ester] and Cc1noc(-c2ccc(-c3nnn(CC(=O)O)n3)cc2)c1NC(=O)O[C@H](C)c1ccccc1F [Compound 1-135, [5-(4-{4-[(R)-1-(2-Fluoro-phenyl)-ethoxycarbonylamino]-3-methyl-isoxazol-5-yl}-phenyl)-tetrazol-2-yl]-acetic acid] fall in the same range of IC50: 1000 to 50000 nM for the first, 1000 to 50000 nM for the second.

First: Cc1noc(-c2ccc(Cc3ccc(C(=O)NC4CC4)cc3)cc2)c1NC(=O)OC(C)c1ccccc1Cl (centres unmarked) [Compound 2-1, {5-[4-(4-Cyclopropylcarbamoyl-benzyl)-phenyl]-3-methyl-isoxazol-4-yl}-carbamic acid 1-(2-chloro-phenyl)-ethyl ester]
Second: Cc1noc(-c2ccc3cc(-c4ccc(CSCCC(=O)O)cc4)ccc3c2)c1NC(=O)OC(C)c1ccccc1Cl (centres unmarked) [Compound 3-2, 3-[4-(6-{4-[1-(2-Chloro-phenyl)-ethoxycarbonylamino]-3-methyl-isoxazol-5-yl}-naphthalen-2-yl)-benzylsulfanyl]-propionic acid]
The IC50 of the first is lower: less than 300 nM for the first, 300 to 1000 nM for the second.

First: Cc1noc(-c2csc(-c3ccc(CC(=O)O)cc3)n2)c1NC(=O)O[C@H](C)c1ccccc1F [Compound 3-3, [4-(4-{4-[(R)-1-(2-Fluoro-phenyl)-ethoxycarbonylamino]-3-methyl-isoxazol-5-yl}-thiazol-2-yl)-phenyl]-acetic acid]
Second: Cc1noc(-c2csc(-c3cccc(CC(=O)O)c3)n2)c1NC(=O)O[C@H](C)c1ccccc1F [Compound 3-6, [3-(4-{4-[(R)-1-(2-Fluoro-phenyl)-ethoxycarbonylamino]-3-methyl-isoxazol-5-yl}-thiazol-2-yl)-phenyl]acetic acid]
The IC50 of the first is higher: 1000 to 50000 nM for the first, 300 to 1000 nM for the second. The second is the more potent here.

Molecule Cc1noc(-c2csc(-c3ccccc3CC(=O)O)n2)c1NC(=O)O[C@H](C)c1ccccc1F [Compound 3-5, [2-(4-{4-[(R)-1-(2-Fluoro-phenyl)-ethoxycarbonylamino]-3-methyl-isoxazol-5-yl}-thiazol-2-yl)-phenyl]acetic acid] has an IC50 of 1000 to 50000 nM.

biological target: T2, human LPA3 (Homo sapiens, UniProt Q9UBY5); assay: LPA3 calcium flux assay; type: cell-based; settings: Human LPA3 expressing CHO cells, stimulated with 10 nM LPA; read-out: HLPA3 Ca Flux IC50
T2 construct: The full-length cDNA fragment for human LPA3 was obtained by PCR from the vector; expressed in transfected cells; cDNA from the Missouri S&T cDNA Resource Center
T2 sequence (Q9UBY5 1-353): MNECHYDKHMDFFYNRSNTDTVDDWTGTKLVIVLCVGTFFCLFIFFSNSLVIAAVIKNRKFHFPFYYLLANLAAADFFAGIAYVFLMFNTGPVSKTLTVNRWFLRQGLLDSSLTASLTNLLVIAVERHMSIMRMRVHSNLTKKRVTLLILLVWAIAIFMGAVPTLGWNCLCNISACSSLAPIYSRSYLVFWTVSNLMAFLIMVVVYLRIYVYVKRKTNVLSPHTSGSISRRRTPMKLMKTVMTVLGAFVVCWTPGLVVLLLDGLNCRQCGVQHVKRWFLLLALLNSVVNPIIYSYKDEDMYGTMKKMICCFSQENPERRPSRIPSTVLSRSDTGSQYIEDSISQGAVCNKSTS
Protocol: A vector containing the human LPA3 receptor cDNA was obtained from the Missouri S&T cDNA Resource Center (www.cdna.org). The full-length cDNA fragment for human LPA3 was obtained by PCR from the vector. The nucleotide sequence of the cloned human LPA3 was determined by sequencing and confirmed to be identical to the published human LPA3 sequence (NCBI accession number NM 012152). The cDNA was cloned into the pcDNA5/FRT expression plasmid and transfected in CHO cells using lipofectamine 2000 (Invitrogen Corp., USA). Clones stably expressing human LPA3 were selected using hygromycin and identified as cells that show Ca-influx in response to LPA.
as §1

First: Cc1noc(-c2ccc(-c3ccc(C(C)C(=O)O)cc3)cc2)c1NC(=O)O[C@H](C)c1ccccc1Cl (single isomer, unassigned) [Compound 1-127]
Second: Cc1noc(-c2ccc(Cn3cnc(C(=O)O)n3)cc2)c1NC(=O)OC(C)c1ccccc1Cl (centres unmarked) [Compound 1-1, 1-(4-{4-[1-(2-Chloro-phenyl)-ethoxycarbonylamino]-3-methyl-isoxazol-5-yl}-benzyl)-1H-[1,2,4]triazole-3-carboxylic acid]
The IC50 of the first is lower: 300 to 1000 nM for the first, 1000 to 50000 nM for the second. The first is the more potent here.

Cc1noc(-c2ccc(-c3ccc(C(C)C(=O)O)cc3)cc2)c1NC(=O)O[C@H](C)c1ccccc1Cl (single isomer, unassigned) [Compound 1-128] and Cc1noc(-c2ccc(Cn3cncc3C(=O)O)cc2)c1NC(=O)OC(C)c1ccccc1Cl (centres unmarked) [Compound 1-3, 3-(4-{4-[1-(2-Chloro-phenyl)-ethoxycarbonylamino]-3-methyl-isoxazol-5-yl}-benzyl)-3H-1-imidazole-4-carboxylic acid] fall in the same range of IC50: 1000 to 50000 nM for the first, 1000 to 50000 nM for the second.

For Cc1noc(-c2ccc(Cn3ncc(C(=O)O)c3C(F)(F)F)cc2)c1NC(=O)OC(C)c1ccccc1Cl (centres unmarked) [Compound 1-4, 1-(4-{4-[1-(2-Chloro-phenyl)-ethoxycarbonylamino]-3-methyl-isoxazol-5-yl}-benzyl)-5-trifluoromethyl-1H-pyrazole-4-carboxylic acid], the IC50 was 1000 to 50000 nM.

Reference: US20110301142A1, “ANTAGONISTS OF LYSOPHOSPHATIDIC ACID RECEPTORS” (priority 2008, published 2011)
